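Briefly, cells in 96-well plates were exposed to five compound concentrations for 48 h, and endpoints were estimated by linear interpolation. Definition used: TGI = concentration required for complete inhibition of growth.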
Tests used:
Assay in all cases: NCI anticancer screen, dose series, 48 h
RPMI-8226 leukemia = test system: RPMI-8226 leukemia
SK-MEL-28 melanoma = test system: SK-MEL-28 melanoma
HOP-92 NSCLC = test system: HOP-92 NSCLC
M14 melanoma = test system: M14 melanoma
HL-60(TB) leukemia = test system: HL-60(TB) leukemia
SR leukemia = test system: SR leukemia
MDA-N = test system: MDA-N
CAKI-1 renal = test system: CAKI-1 renal
OVCAR-4 ovarian = test system: OVCAR-4 ovarian
COLO 205 colon = test system: COLO 205 colon
KM12 colon = test system: KM12 colon
RXF 393 renal = test system: RXF 393 renal
OVCAR-3 ovarian = test system: OVCAR-3 ovarian
SN12C renal = test system: SN12C renal
KM20L2 colon = test system: KM20L2 colon
U251 CNS = test system: U251 CNS
EKVX NSCLC = test system: EKVX NSCLC
SNB-19 CNS = test system: SNB-19 CNS
MDA-MB-231 breast = test system: MDA-MB-231 breast
MDA-MB-435 = test system: MDA-MB-435
CCRF-CEM leukemia = test system: CCRF-CEM leukemia
ACHN renal = test system: ACHN renal
DMS 114 small cell lung = test system: DMS 114 small cell lung
NCI-H226 lung = test system: NCI-H226 lung
SK-MEL-2 melanoma = test system: SK-MEL-2 melanoma
MALME-3M melanoma = test system: MALME-3M melanoma
SW-620 colon = test system: SW-620 colon
OVCAR-5 ovarian = test system: OVCAR-5 ovarian
HCC-2998 colon = test system: HCC-2998 colon
OVCAR-8 ovarian = test system: OVCAR-8 ovarian
T-47D breast = test system: T-47D breast
UO-31 renal = test system: UO-31 renal
NCI-H460 lung = test system: NCI-H460 lung
TK-10 renal = test system: TK-10 renal
K-562 leukemia = test system: K-562 leukemia
SF-295 CNS = test system: SF-295 CNS
NCI-H522 lung = test system: NCI-H522 lung
SK-MEL-5 melanoma = test system: SK-MEL-5 melanoma
HOP-18 NSCLC = test system: HOP-18 NSCLC
DMS 273 small cell lung = test system: DMS 273 small cell lung
UACC-257 melanoma = test system: UACC-257 melanoma
NCI-H23 lung = test system: NCI-H23 lung
HS 578T breast = test system: HS 578T breast
SNB-75 CNS = test system: SNB-75 CNS
SF-539 CNS = test system: SF-539 CNS
HCT-116 colon = test system: HCT-116 colon
A549 NSCLC = test system: A549 NSCLC
HOP-62 NSCLC = test system: HOP-62 NSCLC
HCT-15 colon = test system: HCT-15 colon
DLD-1 colon = test system: DLD-1 colon
DU-145 prostate = test system: DU-145 prostate
HT29 colon = test system: HT29 colon
A498 renal = test system: A498 renal
PC-3 prostate = test system: PC-3 prostate
NCI/ADR-RES ovarian = test system: NCI/ADR-RES ovarian
UACC-62 melanoma = test system: UACC-62 melanoma
MCF7 breast = test system: MCF7 breast
786-0 renal = test system: 786-0 renal
IGROV1 ovarian = test system: IGROV1 ovarian
XF 498 CNS = test system: XF 498 CNS
MOLT-4 leukemia = test system: MOLT-4 leukemia
BT-549 breast = test system: BT-549 breast
SK-OV-3 ovarian = test system: SK-OV-3 ovarian
M19-MEL melanoma = test system: M19-MEL melanoma
LOX IMVI melanoma = test system: LOX IMVI melanoma
SF-268 CNS = test system: SF-268 CNS
LXFL 529 NSCLC = test system: LXFL 529 NSCLC

OCc1ccc(-c2ccc(-c3ccc(CO)s3)o2)s1
TGI (RPMI-8226 leukemia): 62.3 µM
TGI (SK-MEL-28 melanoma): > 91.9 µM
TGI (HOP-92 NSCLC): 91.2 µM
TGI (M14 melanoma): > 84.3 µM
TGI (HL-60(TB) leukemia): 38.2 µM
TGI (SR leukemia): 61.1 µM
TGI (MDA-N): 39.6 µM
TGI (CAKI-1 renal): 0.061 µM
TGI (OVCAR-4 ovarian): 2.76 µM
TGI (COLO 205 colon): 3.01 µM
TGI (KM12 colon): 85.3 µM
TGI (RXF 393 renal): 1.77 µM
TGI (OVCAR-3 ovarian): 0.791 µM
TGI (SN12C renal): 81 µM
TGI (KM20L2 colon): 1.19 µM
TGI (U251 CNS): 23.4 µM
TGI (EKVX NSCLC): > 96.4 µM
TGI (SNB-19 CNS): > 100 µM
TGI (MDA-MB-231 breast): > 92.2 µM
TGI (MDA-MB-435): 17.3 µM
TGI (CCRF-CEM leukemia): 72.2 µM
TGI (ACHN renal): > 94.1 µM
TGI (DMS 114 small cell lung): > 100 µM
TGI (NCI-H226 lung): 0.145 µM
TGI (SK-MEL-2 melanoma): 89.2 µM
TGI (MALME-3M melanoma): > 88.8 µM
TGI (SW-620 colon): > 100 µM
TGI (OVCAR-5 ovarian): 0.102 µM
TGI (HCC-2998 colon): 4.02 µM
TGI (OVCAR-8 ovarian): 61.4 µM
TGI (T-47D breast): 7.59 µM
TGI (UO-31 renal): > 84.7 µM
TGI (NCI-H460 lung): 2.89 µM
TGI (TK-10 renal): 0.171 µM
TGI (K-562 leukemia): 38.3 µM
TGI (SF-295 CNS): 74.1 µM
TGI (NCI-H522 lung): > 100 µM
TGI (SK-MEL-5 melanoma): 69.7 µM
TGI (HOP-18 NSCLC): 32.6 µM
TGI (DMS 273 small cell lung): > 49.5 µM
TGI (UACC-257 melanoma): 0.0669 µM
TGI (NCI-H23 lung): > 90.9 µM
TGI (HS 578T breast): 86.6 µM
TGI (SNB-75 CNS): 80.3 µM
TGI (SF-539 CNS): > 85.8 µM
TGI (HCT-116 colon): 45.2 µM
TGI (A549 NSCLC): 48.1 µM
TGI (HOP-62 NSCLC): 17.2 µM
TGI (HCT-15 colon): 81 µM
TGI (DLD-1 colon): > 73.4 µM
TGI (DU-145 prostate): 66.5 µM
TGI (HT29 colon): > 95 µM
TGI (A498 renal): 0.0278 µM
TGI (PC-3 prostate): > 100 µM
TGI (NCI/ADR-RES ovarian): 71.5 µM
TGI (UACC-62 melanoma): 0.154 µM
TGI (MCF7 breast): 2.59 µM
TGI (786-0 renal): > 85.8 µM
TGI (IGROV1 ovarian): 0.676 µM
TGI (XF 498 CNS): 0.356 µM
TGI (MOLT-4 leukemia): 71.5 µM
TGI (BT-549 breast): 50.7 µM
TGI (SK-OV-3 ovarian): 39.2 µM
TGI (M19-MEL melanoma): > 100 µM
TGI (LOX IMVI melanoma): 79.7 µM
TGI (SF-268 CNS): > 97.1 µM
TGI (LXFL 529 NSCLC): 0.0435 µM

Reference: PubChem BioAssay (NCI)
